Laboratory results reported in a melting point compilation (Tetko et al.; mined from patent text by program, amines drawn as free bases though some values may be those of a salt).

Row | SMILES | melting point [°C]
1 | CN(C)c1ccc(NC(=O)N(C[C@H]2CC[C@H](CN(C(=O)Nc3ccc(N(C)C)cc3)C3CCCCCC3)CC2)C2CCCCCC2)cc1 | 159 to 164
2 | COc1ccc(CN(C(=O)C2CCCc3ccc(OC)cc32)c2ccc(C(C)C)cc2)cc1 (configuration not stated) | 83 to 85
3 | Fc1ccc(-c2cc(C(C(F)(F)F)C(F)(F)F)[nH]c2-c2ccc(F)cc2)cc1 | 123 to 124
4 | CCOC(=O)c1[nH]c(C)nc1C(=S)OCC | 119 to 121
5 | CCc1c(CCNC(=O)C(F)(F)F)ccc(OC)c1OC | 80 to 81
6 | O=C1c2ccccc2COc2ccc(CCN3CCC(n4c(=O)[nH]c5ccccc54)CC3)cc21 | 116 to 120
7 | CCCCCCOc1ccccc1C(=O)CCCCC(=O)O | 64 to 65
8 | COc1cc2[nH]c(=O)c([N+](=O)[O-])c(C(F)(F)F)c2cc1OC | 270
9 | CCOC(=O)c1cnc2sc(-c3ccc(OC)cc3)c(CN(C)Cc3ccccc3)c2c1O | 175 to 177
10 | CCCCCCCCCCC1(CCCCCCCCCC)c2cc(C=Cc3ccncc3)ccc2-c2ccc(N(c3ccccc3)c3ccccc3)cc21 | 88.4 to 89.3
11 | CC1C(=O)N(c2ccc(O)cc2)C(=S)N1c1ccc(Oc2ccc(F)cc2)cc1 (configuration not stated) | 148
12 | C1=Nc2c(cnn2-c2ccccc2)C2=N[C@@H](Cc3ccccc3)CN12 | 255
13 | CN1CCCN(c2ccc(/C=C/c3cc(/C=C/c4ccc5cc[nH]c5c4)[nH]n3)c(Br)c2)CC1 | 132 to 136
14 | CN1CCN(C)c2cccc(Nc3ncc(Cl)c(N[C@@H]4CCCC[C@H]4NS(C)(=O)=O)n3)c2C1=O | 160
15 | Cc1cccc(-c2nc3ccc(OCCN4CCN(C)CC4)cc3n2Cc2ccccc2)c1 | 91
16 | CC(C)CC(NC(=O)Cc1ccc(NC(=O)Nc2ccccc2)cc1)c1ncc(CCC(=O)O)s1 (configuration not stated) | 146 to 148
17 | O=C(Nc1ccccc1)N1CCc2cc(S(=O)(=O)N3CC(c4ccccc4)NC3=O)ccc21 (configuration not stated) | 247 to 248
18 | C[C@H]1[C@@H](C(C)(C)O)CCN1c1ccc(C#N)c2sccc12 | 146 to 147
19 | COC(=O)C1=CCCn2c(=O)c3ccccc3c(=O)n21 | 156 to 157
20 | COCCn1c(C)c(C2(c3ccc(N(C)C)cc3C)OC(=O)c3ccccc32)c2ccccc21 (configuration not stated) | 205 to 207
21 | O=C(O)COc1ccc2cc(-c3oc4ccccc4c3-c3ccccc3)ccc2c1-c1ccccc1 | 202 to 203
22 | CC(C)(C)OC(=O)c1nc(C2CC2)[nH]c(=O)c1OCc1ccccc1 | 164
23 | COC(=O)c1nc(N(C)Cc2ccccc2)ccc1Oc1nc(OC)cc(OC)n1 | 73 to 75
24 | COc1ccc2c(c1)S(=O)(=O)C(C(=O)Nc1cccc(C(F)(F)F)c1)C(=O)N2C (configuration not stated) | 165 to 168
25 | CN(C)C(=O)COc1ccc2c(c1)C[C@@H](NC[C@@H](O)c1ccc(OCc3ccccc3)cc1)CC2 | 103 to 106

Row | SMILES | melting point [°C]
26 | CCc1c(OC)nc2nc(C#N)cn2c1C | 166 to 168
27 | Cc1cn([C@H]2CC(N=[N+]=[N-])[C@@H](COC(=O)C(C)(C)CC(=O)N[C@@H](Cc3ccccc3)[C@H](O)C(=O)N3CSC(C)(C)[C@H]3C(=O)NC(C)(C)C)O2)c(=O)[nH]c1=O (some centres not stated) | 95 to 97
28 | O=C(CCCCCCCCC(=O)Oc1ccc(C(=O)OCc2ccccc2)cc1)Oc1ccc(C(=O)OCc2ccccc2)cc1 | 62.5 to 63
29 | CC(=O)Nc1ccc2c3c1c(=O)c(C(=O)O)cn3C(C)CC2 (configuration not stated) | 277 to 279
30 | CCOC(=O)N1CCN(c2nc(C)nc3c2OCC(=O)N3)CC1 | 197 to 198
31 | COC(=O)CNc1cc(F)cc(F)c1 | 75 to 77
32 | C=CCCCN(CCCC=C)Cc1noc(-c2ncn3c2CN(C)C(=O)c2ccccc2-3)n1 | 167 to 169
33 | CC(C#CC1CC1)N(O)C(N)=O (configuration not stated) | 142 to 143
34 | COc1cccc(C(O)CNC(=C[N+](=O)[O-])NCCCl)c1 (configuration not stated) | 127 to 130
35 | CC1(C)SC2C(NC(c3ccccc3)(c3ccccc3)c3ccccc3)C(=O)N2C1c1nnn[nH]1 (configuration not stated) | 133 to 136
36 | CCCN1CC(C(=O)OC)CC2c3cccc4[nH]cc(c34)CC21 (configuration not stated) | 202 to 204
37 | Cc1cc(-n2c(C)ccc2-c2ccc(S(C)(=O)=O)c(F)c2)ccc1-c1cscn1 | 179 to 181
38 | NC(Cc1ccccc1)C(=O)NC1CCN(c2nc3c(cc2F)c(=O)c(C(=O)O)cn3C2CC2)C1 (configuration not stated) | 216 to 219
39 | COC(=O)c1cc(NC(=O)OC(C)(C)C)c([N+](=O)[O-])cc1I | 126
40 | CCOC(=O)c1cn(CCCl)c2cc(N3CCN(C)CC3)c(F)cc2c1=O | 208
41 | C#CC[C@@H](NC(=O)OC(C)(C)C)c1nc2cccnc2c(=O)n1Nc1ccccc1 | 108 to 110
42 | CNS(=O)(=O)c1cn(C)c2ccccc2c1=O | 248 to 250
43 | Nc1nc2[nH]c(CCCc3csc(C(=O)O)c3)cc2c(=O)[nH]1 | 181 to 182
44 | CC(C)(C)c1cc(C#N)c(O)c(Br)c1Cl | 105 to 107
45 | O=S(CCCCCOc1ccc(C2=C(c3ccccc3)CCCc3cc(O)ccc32)cc1)Cc1ccccn1 (configuration not stated) | 176
46 | CC(C)Oc1ccc(CCCOc2cc(CCC(=O)O)n(C)n2)c(OCc2ccc(C(F)(F)F)cc2)c1 | 88 to 89
47 | CC(C)C(C(=O)O[C@H]1C[C@H](O)C=C2C=C[C@H](C)[C@H](CC[C@@H]3C[C@@H](O)CC(=O)O3)[C@H]21)C(C)C | 210 to 211
48 | Cc1ccccc1-c1nc(OCCN(C)C)ncc1N(C)C(=O)C(C)(C)c1cc(C(F)(F)F)cc(C(F)(F)F)c1 | 140 to 141
49 | N#Cc1cc2c(c(C(=O)O)c1)NCCCC2 | 175
50 | COC(=O)C(=C1NCCCS1)[N+](=O)[O-] | 107 to 108

Results, then the molecule that gave them:

Row | melting point [°C] | SMILES
51 | 169 to 170 | N#Cc1ccc(N(Cc2ccc(O)cc2)n2cncn2)cc1-c1ccccc1
52 | 128 to 130 | O=C1CCCc2nc(-c3ccccc3)ccc21
53 | 99 to 100 | CSc1nncc(-c2ccccc2)n1
54 | 74.5 to 75 | O=C(c1ccc(Cl)cc1)c1ccc(OC(F)(F)F)cc1
55 | 207 | Cc1ccc(-c2cncc(OC3SCC(O)C(O)C3O)c2)c(Cl)c1 (configuration not stated)
56 | 165 | COc1ccc(Nc2nc(Cl)nc(Cl)n2)cc1Cl
57 | 202 to 204 | CC1CC=C(Nc2ccc(Br)cc2)c2ncc(C(=O)O)c(=O)n21 (configuration not stated)
58 | 266 to 268 | N=C(N)c1ccc(Cl)cc1
59 | 201 to 202 | Cc1ccc(C(=O)Nc2ccc(CCc3ccc(O)c(O)c3)cc2)c(O)c1
60 | 203 to 205 | CCCc1c(COc2ccc(-c3nnn[nH]3)cc2)ccc(C(C)=O)c1O
61 | 188 to 191 | COc1ccc(Cl)cc1C(=O)NCCc1ccc(C=C(C)C(=O)O)cc1
62 | 144 to 146 | COCCc1sc2ncnc(N)c2c1-c1ccc(N)cc1
63 | 64 to 65 | COc1ccc(Oc2ccc(OC(=O)NC(C)CCCC(C)C)cc2)cc1 (configuration not stated)
64 | 94 | N#Cc1ccccc1C(=O)c1ccccc1S
65 | 159 | CCOP(=O)(COc1ccc2c(c1)[nH]c1ccccc12)OCC
66 | 102 to 104 | COc1ccc2cc(CCCOCCCCCCNCC(O)c3cc(Cl)c(N)c(Cl)c3)ccc2c1 (configuration not stated)
67 | 132 to 134 | CCC(O)(c1ccc(O)cc1)c1cccc(Cl)c1 (configuration not stated)
68 | > 220 | COc1ccc(-c2ccc3[nH]c4ncc(Cl)cc4c3c2)cc1
69 | 100 to 103 | CN(C(=S)c1ccccn1)c1cccc(F)c1
70 | 175 | CCOC(=O)N1CCC(N=c2oc3ncnc(N)c3n2Cc2ccc(F)cc2)CC1
71 | 228 to 230 | CNC(=NS(C)(=O)=O)Nc1ccc(C2=NNC(=O)CC2C)cc1 (configuration not stated)
72 | 279 | N#Cc1cccc(Cl)c1-c1[nH]c(=O)c(-c2ccccc2)cc1C(=O)O
73 | 155 to 156 | CCC(=Cc1ccc(OCCCC(=O)O)c(Cl)c1Cl)[N+](=O)[O-]
74 | 74 to 76 | CCOC(=O)c1cc(=O)c(Oc2ccccc2OC)co1

Row | melting point [°C] | SMILES
75 | 147 to 148 | Nc1cc(Cl)c(I)c(Cl)c1
76 | 112 to 113 | Oc1cccc([C@H]2CCCC[C@H]2NCCCc2ccccc2)c1 (racemic)
77 | 146 to 148 | CC(=O)c1ccc(S(N)(=O)=O)c(Cl)c1
78 | 153 to 157 | O=CNc1nc(OCc2ccccc2)ncc1F
79 | 185 | CC(C)N(C(=S)Nc1ccc(NC(=S)N(C(C)C)C(C)C)cc1)C(C)C
80 | 124 to 126 | COC(=O)c1c(NCc2ccc(OC)c(Cl)c2)nc(SC)nc1OC
81 | 105 | COc1ccc(C=C2CCCN2Cc2ccccc2)cc1OC
82 | 242 | N#Cc1ccsc1C1=CC(=O)Nc2cc(-c3ccccc3F)c(O)cc2N1
83 | 245 to 247 | CC(C)(C)C(NC(=O)c1cccc(Cl)c1)Nc1c(Nc2cnccn2)c(=O)c1=O (configuration not stated)
84 | 192 to 194 | Nc1ccc(C=Cc2cc(=O)cc(-c3ccccc3)o2)cc1
85 | 63 to 64 | CCCCCCCCCCCCOc1ccc(C(=O)c2ccccc2)cc1
86 | 125 to 127 | CC(C)Oc1ccc(CCCOc2cc(CCC(=O)O)n(C)n2)c(OCc2ccc(Cl)cc2Cl)c1
87 | 107 to 110 | CCOC(=O)CNC(=O)Nc1ccc(C(=N)NC(=O)OC(C)(C)C)cc1
88 | 64 to 65 | CCC(OC(C)=O)c1ccc(C(OC(C)=O)C(C)(C)C)cc1 (configuration not stated)
89 | 246 to 252 | O=c1[nH]nc2c3c(cccc13)Oc1ccc(COP(=O)(O)O)cc1-2
90 | 205 to 206 | Cc1ccc2[nH]c(=O)c(=O)[nH]c2c1CN(C)Cc1ccccc1
91 | 120 to 123 | CC(=O)OCc1ccc(C(=O)O)cc1
92 | 227 | O=C(Nc1cccc(S(=O)(=O)N2CCCC2)c1)c1cnn2c(C(F)F)cc(-c3ccc(Cl)cc3)nc12
93 | 42 to 46 | [N-]=[N+]=N[C@H]1CC[C@@H](NC(=O)OCc2ccccc2)CC1
94 | 107 | CC(c1ccc(Cl)cc1)N1CCNC1=NC(N)=S (configuration not stated)
95 | 108 | CCCc1nc(C)n2nc(C(=O)OCC)nc2c1Cc1ccc(-c2ccccc2C#N)cc1
96 | 212 to 214 | CC(C)C[C@@H]1NC(=O)OC1(c1ccccc1)c1ccccc1
97 | 162 | Nc1cccc(Nc2ncc(-c3cccnc3)s2)c1
